Experimental data reported in patent publication US9115117B2, “Substituted piperidine compounds and their use as orexin receptor modulators” (JANSSEN PHARMACEUTICA NV, priority 2013, dated 2015).
Read-outs that look alike come from different tables or passages of the source.

Legend:
rat orexin 1 receptor = rat orexin 1 receptor (Rattus norvegicus, UniProt P56718); experiment: Rat orexin 1 receptor radioligand binding; settings: HEK293 cells stably expressing rat orexin 1 receptor; apparent Ki; read-out: rOX1 Ki
In short: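 Homogenized cell suspensions competed against 4 nM final of a tritiated oxadiazolyl-pyrrolidinyl thiazole methanone radioligand (35.3 Ci/mmol) in PBS, with DMSO ≤0.1%. Nonspecific binding defined with 10 μM almorexant; after washing and drying, bound radioactivity counted by scintillation.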

human orexin 1 receptor = human orexin 1 receptor (Homo sapiens, UniProt O43613); experiment: Human orexin 1 receptor radioligand binding; settings: CHO cells stably expressing human orexin 1 receptor; apparent Ki; read-out: hOX1 Ki
In short: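 Homogenized CHO cells stably expressing human orexin 1 receptor, in PBS. They were incubated 60 min at room temperature with 4 nM final tritiated thiazolyl-pyrrolidinyl-methanone radioligand, DMSO ≤0.1%. Nonspecific binding taken with 10 μM almorexant; bound radioactivity collected by GF/C filtration and scintillation-counted.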

human orexin 2 receptor = human orexin 2 receptor (Homo sapiens (Human), UniProt O43614); experiment: Human orexin 2 receptor radioligand binding ([3H]-EMPA)
In short: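 Competition binding with 2 nM final [3H]-EMPA in PBS against homogenized whole-cell suspension; DMSO ≤0.1%. Nonspecific binding defined with […] almorexant. Plates washed with PBS, dried, and bound radioactivity counted by scintillation.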

[1] = HEK293 stably expressing human orexin 2 receptor, [3H]-EMPA, apparent Ki, read-out: hOX2 Ki

human orexin 2 receptor, sequence (O43614 whole entry): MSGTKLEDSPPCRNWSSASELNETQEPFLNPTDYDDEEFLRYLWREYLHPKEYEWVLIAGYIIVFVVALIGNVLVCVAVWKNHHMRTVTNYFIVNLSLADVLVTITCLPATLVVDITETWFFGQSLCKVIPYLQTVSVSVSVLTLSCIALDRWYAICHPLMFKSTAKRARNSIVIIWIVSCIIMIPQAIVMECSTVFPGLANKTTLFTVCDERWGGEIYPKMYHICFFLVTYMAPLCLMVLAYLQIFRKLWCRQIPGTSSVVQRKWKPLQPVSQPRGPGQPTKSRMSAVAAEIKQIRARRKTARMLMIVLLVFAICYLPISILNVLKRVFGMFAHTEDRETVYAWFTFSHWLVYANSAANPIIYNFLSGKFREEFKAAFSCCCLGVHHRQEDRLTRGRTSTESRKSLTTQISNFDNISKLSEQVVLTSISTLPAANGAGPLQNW

Compound	Ki (rat orexin 1 receptor) [nM]	Ki (human orexin 1 receptor) [nM]	Ki (human orexin 2 receptor; [1]) [nM]	Ki (human orexin 2 receptor) [nM]
Cc1ccc(C(=O)N2CCC[C@@H](Nc3cnc(C(F)(F)F)cn3)[C@@H]2C)c(-n2nccn2)n1 [Example 74, (6-methyl-2-(2H-1,2,3-triazol-2-yl)pyridin-3-yl)((2S,3R)-2-methyl-3-((5-(trifluoromethyl)pyrazin-2-yl)amino)piperidin-1-yl)methanone]	40	52		> 10000
Cc1cnc(C(=O)N2CCC[C@@H](Nc3cnc(C(F)(F)F)cn3)[C@@H]2C)c(-n2nccn2)c1 [Example 72, ((2S,3R)-2-methyl-3-((5-(trifluoromethyl)pyrazin-2-yl)amino)piperidin-1-yl)(5-methyl-3-(2H-1,2,3-triazol-2-yl)pyridin-2-yl)methanone]	24	33	4020	
Cc1ccc(C(=O)N2CCC[C@@H](Nc3ncc(C(F)(F)F)cn3)[C@@H]2C)c(-n2nccn2)c1 [Example 71, (4-methyl-2-(2H-1,2,3-triazol-2-yl)phenyl)((2S,3R)-2-methyl-3-((5-(trifluoromethyl)pyrimidin-2-yl)amino)piperidin-1-yl)methanone]	10	12	1500	
Cc1ccc(C(=O)N2CCC[C@@H](Nc3ncc(Cl)cn3)[C@@H]2C)c(-n2nccn2)c1 [Example 91, ((2S,3R)-3-((5-chloropyrimidin-2-yl)amino)-2-methylpiperidin-1-yl)(4-methyl-2-(2H-1,2,3-triazol-2-yl)phenyl)methanone]	32	48	2100	
Cc1cnc(C(=O)N2CCC[C@@H](Nc3ncc(C(F)(F)F)cn3)[C@@H]2C)c(-n2nccn2)c1 [Example 94, ((2S,3R)-2-methyl-3-((5-(trifluoromethyl)pyrimidin-2-yl)amino)piperidin-1-yl)(5-methyl-3-(2H-1,2,3-triazol-2-yl)pyridin-2-yl)methanone]	38	25	> 10000	
Cc1ccc(C(=O)N2CCC[C@@H](Oc3ccc(C(F)(F)F)cn3)[C@@H]2C)c(-n2nccn2)c1 [Example 112, (4-methyl-2-(2H-1,2,3-triazol-2-yl)phenyl)((2S,3R)-2-methyl-3-((5-(trifluoromethyl)pyridin-2-yl)oxy)piperidin-1-yl)methanone]	8	12	562	
Cc1cnc(C(=O)N2CCC[C@@H](Nc3nc4ccccc4o3)[C@@H]2C)c(-n2nccn2)c1 [Example 73, ((2S,3R)-3-(benzo[d]oxazol-2-ylamino)-2-methylpiperidin-1-yl)(5-methyl-3-(2H-1,2,3-triazol-2-yl)pyridin-2-yl)methanone]	7	21	1890	

Second part, led by results:

Ki (rat orexin 1 receptor) [nM]	Ki (human orexin 1 receptor) [nM]	Ki (human orexin 2 receptor; [1]) [nM]	Compound	Ki (human orexin 2 receptor) [nM]
53	58	6400	COc1ccc(C(=O)N2CCC[C@@H](Nc3cnc(C(F)(F)F)cn3)[C@@H]2C)c(-n2nccn2)c1 [Example 82, (4-methoxy-2-(2H-1,2,3-triazol-2-yl)phenyl)((2S,3R)-2-methyl-3-((5-(trifluoromethyl)pyrazin-2-yl)amino)piperidin-1-yl)methanone]	
44	32	6100	COc1ccc(C(=O)N2CCC[C@@H](Nc3ccc(C(F)(F)F)cn3)[C@@H]2C)c(-n2nccn2)c1 [Example 97, (4-methoxy-2-(2H-1,2,3-triazol-2-yl)phenyl)((2S,3R)-2-methyl-3-((5-(trifluoromethyl)pyridin-2-yl)amino)piperidin-1-yl)methanone]	
20	19	486	C[C@H]1[C@H](Nc2cnc(C(F)(F)F)cn2)CCCN1C(=O)c1cc(F)ccc1-n1nccn1 [Example 90, (5-fluoro-2-(2H-1,2,3-triazol-2-yl)phenyl)((2S,3R)-2-methyl-3-((5-(trifluoromethyl)pyrazin-2-yl)amino)piperidin-1-yl)methanone]	
